The text below walks through data of patent US10065957B2, “Beta-lactamase inhibitors” (Novartis AG, priority 2016, dated 2018).

What all share (type): cell-based
Assay [1] deals with E. coli (KPC-2). The experiment in a line: microbe, parasite or virus in culture. The conditions noted are these: E. coli (KPC-2). The method, then:
(§1) MICs were determined by the broth microdilution method in accordance with Clinical and Laboratories Institute (CLSI) guidelines. In brief, fresh overnight bacterial cultures were suspended in sterile saline, and adjusted to a 0.5 McFarland turbidity standard. Bacterial suspensions were then diluted in cation adjusted Mueller-Hinton Broth (MHB II; BBL) to yield a final inoculum of approximately 5×10^5 colony-forming units (CFU)/mL. A master plate of antibiotics was prepared at a concentration equivalent to hundred-fold the highest desired final concentration in 100% dimethyl sulfoxide (DMSO). The master antibiotic plate was then diluted by serial twofold dilution with a multichannel pipette. The resulting dilution series of compounds were diluted 1:10 with sterile water or a solution of beta-lactamase inhibitor prepared at a concentration equivalent to eleven-fold the desired final concentration in deionized water leading to a 10% DMSO final concentration. A volume of 10 μL of the drug dilution series was transferred to 96-well assay plates. Assay plates were inoculated with 90 μL of bacterial suspensions and incubated at 35° C. for 20 hrs. The assay plates were read using a microtiter plate reader (Molecular Devices) at 600 nm as well as by visual observation with a reading mirror. The lowest concentration of the compound that prevented visible growth was recorded as the MIC.
(§2) Synergy or potentiation of beta-lactam antibiotics through inhibition of Q-lactamases was assessed against an isogenic panel of E. coli strains, each expressing a unique beta-lactamase, and against clinical strains.
(§3) Strain NB27273 (BW25113 pspB::Km^r) was obtained from the Keio transposon insertion collection. The strain has the pspB gene replaced by a kanamycin resistance marker (BW25113 pspB::Km^r). This strain was cured of the transposon in pspB via FLP recombinase using published methodology. The resulting strain, BW25113 pspB, was used as a host for multicopy vectors expressing key beta-lactamases. Multicopy plasmids directing constitutive expression of beta-lactamases were established as follows: Synthetic, codon optimized genes encoding E. coli KPC-2, SHV-12 and CTX-M-15 beta-lactamases were made by DNA2.0 (Palo Alto, Calif.). Each of the synthetic fragments were designed to contain NotI and NcoI restriction sites at their termini, allowing ligation into a NotI/NcoI digested pET28a(+) derivative for protein expression. […] The codon optimized nucleotide sequences and relevant primer recognition information is shown below:
(§4) The PCR products were then digested with XhoI and EcoRI and ligated into similarly digested plasmid pAH63-pstS(BlaP). […] Therefore, expression of beta-lactamases from pAH63-pstS(BlaP) based constructs is constitutive and the signal sequence is provided to direct these proteins to the periplasm. […] These fragments were then digested with XbaI and EcoRI, and each was inserted into pBAD18-kan that had been digested with the same enzymes to generate multicopy vectors expressing KPC-2, SHV-12 and CTX-M-15, respectively. These vectors were transformed into BW25113 pspB to generate strains NB27273-CDY0033 (expressing KPC-2), NB27273-CDY0030 (expressing SHV-12), NB27273-CDY0034 (expressing CTX-M-15) and NB27273-CDY0036 (expressing AmpC). The pBAD18-kan vector also contains the TEM promoter region and signal sequence, (but lacks any intact beta-lactamase genes) and was transformed into BW25113 pspB using standard protocols to generate the control strain NB27273-CDY0026.

The test system of assay [2] is E. coli (SHV-12). Kind of assay: microbe, parasite or virus in culture. The method, then:
as §1, §2, §3, §4

Assay [3] deals with E. coli (CTX-M-15). The experiment in a line: microbe, parasite or virus in culture. As to the method: as §1, §2, §3, §4
Assay [4] deals with E. coli (TEM-10). The experiment in a line: microbe, parasite or virus in culture. The method, then:
as §1, §2
(§5) Construction of E. coli isogenic strains, NB27273-CDY0105 (OXA-18) and NB27273-CDY0048 (TEM-10). […] The gene encoding OXA-18 was then digested with XhoI and EcoRI and inserted into this vector, from which the gene for GIM-1 had been removed with XhoI and EcoRI.
From this template DNA, three fragments were generated by PCR using the following primer pairs;
This fragment was then digested with XbaI and EcoRI and inserted into pBAD-kan which was also cut with the same enzymes.
(§6) These final vectors for expression of OXA-18 and TEM-10 were transformed into BW25113 pspB to generate strains NB27273-CDY0105 (expressing OXA-18) and NB27273-CDY0048 (expressing TEM-10).

The subject of assay [5] is E. coli (OXA-18). Kind of assay: microbe, parasite or virus in culture. The following applies: for MIC of piperacillin with beta-lactamase inhibitor: Pip + BLI at 2 μg/mL. The method, then: as §1, §2, §5, §6
The test system of assay [6] is E. coli (AmpC). The experiment in a line: microbe, parasite or virus in culture. The method, then: as §1, with “MIC. Performance of the assay was monitored by testing aztreonam against laboratory quality control strains in accordance with guidelines of the CLSI.” for “MIC.”
as §2
The gene encoding AmpC was PCR amplified from the genome of strain P. aeruginosa PAO1 (NB52019) (GenBank ID U5R279) using primer pair E252 (gccCTCGAGggcgaggccccggcggatcgc) (SEQ ID NO: 17) and E253 (tgaGAATTCtcagcgcttcagcggcacct) (SEQ ID NO: 18).
The PCR products were then digested with XhoI and EcoRI and ligated into similarly digested plasmid pAH63-pstS(BlaP). Plasmid pAH63-pstS(BlaP) is a derivative of plasmid pAH63 (J Bacteriol: 183(21): 6384-6393) made by cloning the TEM-1 (bla) promoter and signal peptide encoding region from plasmid pBAD (J Bacteriol. 1995 July 177(14):4121-30) into plasmid pAH63. This fragment was PCR amplified from pBAD using primer pair E192 (ttcaCTGCAGtgaacgttgcgaagcaacggC) (SEQ ID NO:19) and E194 (TCGAggatcctcgagagcaaaaacaggaaggcaaaatgccg) (SEQ ID NO:20), digested with PstI and BamHI and inserted into similarly digested plasmid pAH63. Therefore, expression of beta-lactamases from pAH63-pstS(BlaP) based constructs is constitutive and the signal sequence is provided to direct these proteins to the periplasm. Plasmid pAH63 based vectors are used for insertion into the genome in single copy, however, to provide higher expression levels to allow more sensitive detection of the susceptibility of compounds to the expressed beta-lactamases, the expression inserts contained in these vectors were moved to the replicative multicopy vector pBAD-Kan (J Bacteriol. 1995 July 177(14):4121-30). To accomplish this, the inserts encompassing the beta-lactamase genes, with the associated TEM promoter and signal sequences, were PCR amplified from their corresponding vectors using primer E268 (ccgTCTAGAcggatggcctttttgcgtttc) (SEQ ID NO:21) and E202 (aatcGAATTCttactgaccattaacgcccaagc) (SEQ ID NO:22) for the KPC2 construct, E204 (aatcGAATTCttaacgctgccagtgctcaatc) (SEQ ID NO:23) for the SHV-12 construct and E203 (aatcGAATTCttacagaccgtcggtgacaatc) (SEQ ID NO:24) for the CTX-M-15 construct. These fragments were then digested with XbaI and EcoRI, and each was inserted into pBAD18-kan that had been digested with the same enzymes to generate multicopy vectors expressing KPC-2, SHV-12 and CTX-M-15, respectively. […]

For assay [7], the system named is K. pneumoniae ATCC 43816. Kind of assay: MIC by broth microdilution, BLI alone. The conditions noted are these: Klebsiella pneumoniae, ATCC43816, read-out: Minimal Inhibitory Concentrations (MIC) of selected BLIs. As to the method:
as §1, with “MIC. Performance of the assay was monitored by testing aztreonam against laboratory quality control strains in accordance with guidelines of the CLSI.” for “MIC.”
In general terms: Broth dilution looks for growth in wells or tubes with falling amounts of substance.

The test system of assay [8] is P. aeruginosa ATCC 27853. The experiment in a line: MIC by broth microdilution, BLI alone. The conditions noted are these: Pseudomonas aeruginosa, ATCC27853, read-out: Minimal Inhibitory Concentrations (MIC) of selected BLIs. As to the method: as §1, with “MIC. Performance of the assay was monitored by testing aztreonam against laboratory quality control strains in accordance with guidelines of the CLSI.” for “MIC.”

Assay [9] deals with E. coli ATCC 25922. Kind of assay: MIC by broth microdilution, BLI alone. The conditions noted are these: Escherichia coli, ATCC25922, read-out: Minimal Inhibitory Concentrations (MIC) of selected BLIs. The method, then: as §1, with “MIC. Performance of the assay was monitored by testing aztreonam against laboratory quality control strains in accordance with guidelines of the CLSI.” for “MIC.”

[10] abbreviates: Escherichia coli, Mero alone, read-out: MIC of meropenem.

Structures can show the parent of a compound that is named as a salt.

Take `Nc1nc(/C(=N/OC2(C(=O)O)CC2)C(=O)N[C@@H]2C(=O)N(S(=O)(=O)O)[C@@H]2CN2CCOC2=O)cs1` [Beta-Lactam 5]: the “Activity of Beta-Lactam 5” value in assay [1] (Beta-Lactam 5 alone) came out at 0.25 µg/mL; in assay [2] (Beta-Lactam 5 alone) it was 0.5 µg/mL; in assay [3] (Beta-Lactam 5 alone), 0.125 µg/mL; in assay [4] (Beta-Lactam 5 alone), 2 µg/mL; in assay [5] (Beta-Lactam 5 alone), 0.5 µg/mL; in assay [6] (Beta-Lactam 5 alone), 0.25 µg/mL.
As to `CN1C[C@@H]2C[C@@H]3CN(C(=O)N3OS(=O)(=O)[O-])[C@@H]2C1=O.[Na+]` [Example 2, Sodium (4R,5aS,8aS)-7-methyl-2,8-dioxohexahydro-2H-1,4-methanopyrrolo[3,4-d][1,3]diazepin-3(4H)-yl sulfate], the “MIC of piperacillin with beta-lactamase inhibitor” value in assay [5] is 4 µg/mL. In addition, the MIC in assay [7], in assay [8] and in [9] was above 64 µg/mL in each case.
Consider `O=C1[C@@H]2[C@@H](C[C@@H]3CN2C(=O)N3OS(=O)(=O)[O-])CN1C1CC1.[Na+]` [Example 3, Sodium (4R,5aS,8aS)-7-cyclopropyl-2,8-dioxohexahydro-2H-1,4-methanopyrrolo[3,4-d][1,3]diazepin-3(4H)-yl sulfate], for which the “MIC of piperacillin with beta-lactamase inhibitor” value in assay [5] stood at 4 µg/mL. The MIC in assay [7], in [8] and in assay [9] was above 64 µg/mL in each case.
Turning to `O=C1[C@@H]2[C@@H](C[C@@H]3CN2C(=O)N3OS(=O)(=O)[O-])CN1CCO.[Na+]` [Example 4, Sodium (4R,5aS,8aS)-7-(2-hydroxyethyl)-2,8-dioxohexahydro-2H-1,4-methanopyrrolo[3,4-d][1,3]diazepin-3(4H)-yl sulfate], the MIC in [7], in assay [8] and in [9] was above 64 µg/mL in each case.
In the case of `NCCN1C[C@@H]2C[C@@H]3CN(C(=O)N3OS(=O)(=O)O)[C@@H]2C1=O` [Example 5, (4R,5aS,8aS)-7-(2-aminoethyl)-2,8-dioxohexahydro-2H-1,4-methanopyrrolo[3,4-d][1,3]diazepin-3(4H)-yl hydrogen sulfate], the MIC in assay [7], in [8] and in assay [9] was above 64 µg/mL in each case.
For the compound `CCCN1C[C@@H]2C[C@@H]3CN(C(=O)N3OS(=O)(=O)[O-])[C@@H]2C1=O.[Na+]` [Example 6, Sodium (4R,5aS,8aS)-2,8-dioxo-7-propylhexahydro-2H-1,4-methanopyrrolo[3,4-d][1,3]diazepin-3(4H)-yl sulfate], the MIC in [7], in [8] and in [9] was above 64 µg/mL each time.
Take `O=C1NCC[C@@H]2C[C@@H]3CN(C(=O)N3OS(=O)(=O)[O-])[C@H]12.[Na+]` [Example 7, Sodium (4R,5aR,9aS)-2,9-dioxooctahydro-1,4-methanopyrido[3,4-d][1,3]diazepin-3(2H)-yl hydrogen sulfate]: the “MIC of piperacillin with beta-lactamase inhibitor” value in [5] is 8 µg/mL. Moreover, the MIC in [7], in assay [8] and in assay [9] was above 64 µg/mL each time.
As for `COC[C@@H]1NC(=O)[C@@H]2[C@H]1C[C@@H]1CN2C(=O)N1OS(=O)(=O)[O-].[Na+]` [Example 8, Sodium (4R,5aS,6R,8aS)-6-(methoxymethyl)-2,8-dioxohexahydro-2H-1,4-methanopyrrolo[3,4-d][1,3]diazepin-3(4H)-yl hydrogen sulfate], the MIC in assay [7], in assay [8] and in assay [9] was above 64 µg/mL in each case.
Consider `C[C@@H](O)[C@H]1C(=O)N2C(C(=O)O)=C(S[C@@H]3CN[C@H](C(=O)N(C)C)C3)[C@H](C)[C@H]12` [Meropenem], for which the MIC in assay [1] (setting [10]) is 1 µg/mL; in [2] (setting [10]), at most 0.06 µg/mL; in assay [3] (setting [10]), at most 0.06 µg/mL; in [4] (setting [10]), at most 0.06 µg/mL; in assay [5] (setting [10]), at most 0.06 µg/mL; in assay [6] (setting [10]) it was at most 0.06 µg/mL.
Turning to Ceftazidime, the MIC of ceftazidime in assay [2] (ceftazidime alone) was above 64 µg/mL; in [3] (ceftazidime alone) it was 16 µg/mL; in [4] (ceftazidime alone) it was above 64 µg/mL; in assay [5] (ceftazidime alone), above 64 µg/mL; in assay [6] (ceftazidime alone), 4 µg/mL.
